# Assay results reported in patent publication US20100160391A1, “Substituted Aminopyridines as Fluorescent Reporters for Amide Hydrolases” (priority 2006, published 2010).
# Read-outs that look alike come from different tables or passages of the source. Marks after values point to notes of the source that are not given here.
# Legend:
# FAAH [1] = settings: from Ramarao et al. (AAMCA), De Bank et al. (oleamide); cited from earlier work
# FAAH [2] = assay: FAAH kinetic data of literature substrates; type: biochemical; settings: Vmax/Km of substrate over that of oleamide (5.5 × 10^−2)
# [3] = 3-aminopyridine in water, from Weisstuch et al.; cited from earlier work
# [4] = Molar extinction coefficient of fluorescent reporters; type: physicochemical; settings: H2O containing 1% ethanol, 290 nm, 30° C., 10-50 μM
# Method: Molar extinction coefficient. According to Beer's law, Aλ=ε*C*L, where Aλ is the absorbance at wavelength (λ nm); ε is called the molar extinction coefficient; L is the width of the sample cuvette; and C is the concentration of the solute. In this example, a series of concentrations falling between 10 and 50 μM (final concentration) for each fluorescent reporter was used for determination of the molar extinction coefficient. Assays were performed in a quartz cuvette (1 cm optical passage). 10 μl of a stock solution of a reporter in ethanol (1, 2, 3, 4, or 5 mM) was added to 990 μl H2O. The resulting mixture was degassed by sonication with ultrasonic cleaner Model 750 (VWR International; Wester, Pa.) for 10 seconds at a power level of 9. Measurements were performed with a Spectra Max M2 spectrophotometer (Molecular Devices; Sunnyvale, Calif.) at a wavelength of 290 nm. A slope (or extinction coefficient) was obtained by using an average absorbance of triplicate samples.
# [5] = Maximal excitation and emission wavelengths; type: physicochemical; settings: 50 μM in 0.1 M phosphate buffer, 30° C.; SD ±2 nm
# Method: Maximal excitation and emission wavelengths. A stock solution in ethanol of each compound (10 μl, 5 mM) was added to 990 μl of sodium phosphate buffer (0.1 M, pH 8.0, final substrate concentration 50 μM) in a 1-cm quartz cuvette. The quartz cuvette was scanned from 200 to 500 nm for absorption spectra with a Spectra Max M2 spectrophotometer. Maximal excitation and emission wavelengths were obtained from scanning from 250 to 600 nm and 360 to 600 nm by a 2 nm interval at 30° C., respectively.
# [6] = cited from earlier work; for ØF, fluorescence quantum yield: in water, literature value
# amidases, human liver S9 = assay: Specific activity, human liver S9; type: biochemical; settings: pH 8.0, 37° C.; NM = not measurable at the same protein concentration as other substrates
# Method: Comparison of the lowest detection limits of protein concentration of FAAH toward colorimetric and fluorescent substrates. In general, all assays were performed in 96-well styrene flat-bottom microtiter plates with a Spectra Max M2 spectrophotometer at 37° C. for […]. The total volume of each well was 201 μl consisting of 0.1 M sodium phosphate buffer (pH 8.0) (190 μl) containing 1% glycerol and 0.1% Triton-X 100, stock or diluted protein solution (10 μl), and the substrate solution (1 μl) in ethanol (final concentration 200 μM for 10, 11, 13 or 14) or in DMSO (final concentration 25 μM for 12, 15, or 16; 50 μM for 17). The lowest detection limits of microsomal fatty acid amide hydrolase (FAAH) by substrates were determined by the fact that the signal at 10 min after kinetic measurements are equal to or over three times the noise or basal line at 0 min. Colorimetric substrate (16) assays were performed in clear 96-well microtititer plates using an absorbance wavelength at 382 nm. The fluorescent substrates containing 5-amino-2-methoxypyridine (e.g., 10, 13) were measured at an excitation wavelength (302 nm), emission wavelength (396 nm), and auto cutoff wavelength (325 nm). […]
# [7] = system: amidases, human liver microsomes; assay: Specific activity, human liver microsomes; type: biochemical; settings: for Specific activity, Human liver microsomes: pH 8.0, 37° C., NM = not measurable at the same protein concentration as other substrates
# Method: (§1) Comparison of the lowest detection limits of protein concentration of FAAH toward colorimetric and fluorescent substrates. In general, all assays were performed in 96-well styrene flat-bottom microtiter plates with a Spectra Max M2 spectrophotometer at 37° C. for […]. The total volume of each well was 201 μl consisting of 0.1 M sodium phosphate buffer (pH 8.0) (190 μl) containing 1% glycerol and 0.1% Triton-X 100, stock or diluted protein solution (10 μl), and the substrate solution (1 μl) in ethanol (final concentration 200 μM for 10, 11, 13 or 14) or in DMSO (final concentration 25 μM for 12, 15, or 16; 50 μM for 17). The lowest detection limits of microsomal fatty acid amide hydrolase (FAAH) by substrates were determined by the fact that the signal at 10 min after kinetic measurements are equal to or over three times the noise or basal line at 0 min. Colorimetric substrate (16) assays were performed in clear 96-well microtititer plates using an absorbance wavelength at 382 nm. The fluorescent substrates containing 5-amino-2-methoxypyridine (e.g., 10, 13) were measured at an excitation wavelength (302 nm), emission wavelength (396 nm), and auto cutoff wavelength (325 nm). Similarly, the fluorescent substrates containing 5-amino-2-methoxy-6-methylpyridine (e.g., 11, 14, and 17) were measured at an excitation wavelength (304 nm), emission wavelength (392 nm), and an auto cutoff wavelength of 325 nm. In addition, an excitation wavelength (366 nm), emission wavelength (496 nm), and auto cutoff wavelength (495 nm) were used for the substrates (e.g., 12 and 15) containing 7-amino-4-trifluoromethyl coumarin.
# Specific activity determination. The assays for specific activities were performed as described above for the sensitivity assay. The specific activity presented is based on the following: 1) the signal after a 10 min enzymatic reaction was at least 3 fold the baseline signal at 0 min, and 2) the amount of hydrolyzed substrate during a 10 min period was less than 10% of the total amount of the substrate added. To correct for protein-induced fluorescence quenching, a standard curve of 5-amino-2-methoxypyridine (6) or 5-amino-2-methoxy-6-methylpyridine (8) was constructed in the presence of the same protein concentration used for the assay of that enzyme.
# [8] = biological target: T1, human FAAH, microsomes from FAAH cells (Homo sapiens, UniProt O00519); assay: Specific activity, microsomes from FAAH cells; type: biochemical
# T1 construct: made in house; host or cells: Trichoplusia ni High Five cells infected with recombinant baculovirus Ac-hFAAH; microsomal fraction
# T1 sequence (O00519 1-579): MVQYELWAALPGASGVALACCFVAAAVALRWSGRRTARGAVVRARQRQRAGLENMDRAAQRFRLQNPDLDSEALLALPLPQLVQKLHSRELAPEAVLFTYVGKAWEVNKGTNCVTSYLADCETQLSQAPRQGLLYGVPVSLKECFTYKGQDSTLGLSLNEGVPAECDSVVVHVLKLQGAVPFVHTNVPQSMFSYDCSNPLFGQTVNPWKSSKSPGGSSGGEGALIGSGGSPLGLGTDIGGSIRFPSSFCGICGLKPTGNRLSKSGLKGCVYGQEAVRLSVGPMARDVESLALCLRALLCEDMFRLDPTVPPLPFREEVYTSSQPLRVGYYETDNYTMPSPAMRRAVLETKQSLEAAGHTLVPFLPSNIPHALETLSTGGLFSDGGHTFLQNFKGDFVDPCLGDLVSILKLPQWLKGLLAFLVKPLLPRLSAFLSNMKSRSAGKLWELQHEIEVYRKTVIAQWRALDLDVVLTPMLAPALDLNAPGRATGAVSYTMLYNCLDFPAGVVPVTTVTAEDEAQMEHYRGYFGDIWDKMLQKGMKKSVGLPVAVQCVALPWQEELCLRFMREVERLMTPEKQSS
# Method: (§2) Preparation of recombinant human FAAH. Transgenic expression of the human FAAH in a baculovirus system was performed by following the method described in Nishi et al., Arch. Biochem. Biophys., 445:115-123 (2006). The cDNA encoding human FAAH (GenBank Accession No. NM_001441) was amplified by PCR using a human liver cDNA library (Invitrogen; Carlsbad, Calif.) as a template. The primer pair was 5′-[…]-3′ and 5′-[…]-3′. BglII and EcoRI endonuclease sites (underlined) were incorporated just upstream of the start codon and downstream of the stop codon of the coding sequence of FAAH, respectively. The PCR products were cloned into a pCR2.1 vector (Invitrogen) and the nucleotide sequence was verified by DNA sequencing. The cDNA fragments were then excised and directionally ligated to the BglII and EcoRI sites of the baculovirus transfer vector pAcUW21 (Lopez-Ferber et al., Baculovirus transfer vectors, in “Baculovirus Expression Protocols,” Richardson (Ed.), pp 25-63, Humana Press, Totowa, N.J., 1995). Recombinant baculoviruses harboring the human FAAH gene, Ac-hFAAH, were generated by co-transfection of Spodoptera frugiperda-derived Sf21 cells with the recombinant transfer vector plasmid and Bsu36I-cleaved BacPAK6 viral DNA (Clontech Laboratories; Mountain View, Calif.) as described in O'Reilly et al., Baculovirus Expression Vectors: A Laboratory Manual, Oxford University Press, New York, 1992. Trichoplusia ni-derived High Five cells (1×10^6 cells/ml) were inoculated with a high titer of Ac-hFAAH. At 72 hours post-infection, the infected cells were harvested by centrifugation at 2,000×g for 20 min at 4° C. and suspended in 50 mM Tris-HCl (pH 8.0) containing 150 mM NaCl, 1 mM EDTA, 1 μM pepstatin, 100 μM leupeptin, and 0.1 mg/ml aprotinin. The cell suspension was then homogenized using a Polytron homogenizer and centrifuged at 10,000×g for 20 min at 4° C. The microsomal fraction was collected by ultracentrifugation of the supernatant at 100,000×g for 60 min at 4° C. The pellet was resuspended in 20 mM Tris-HCl (pH 8.0) containing 10% (w/v) glycerol and 1% (w/v) Triton-X 100 and stored at −80° C. until use.
# as §1
# Specific activity determination. The assays for specific activities were performed as described above for the sensitivity assay. […]
# [9] = system: amidases, microsomes from High Five cells; assay: Specific activity, microsomes from High Five cells; settings: pH 8.0, 37° C.; NM = not measurable at the same protein concentration as other substrates
# Method: Preparation of recombinant human FAAH. Transgenic expression of the human FAAH in a baculovirus system was performed by following the method described in Nishi et al., Arch. […] The cDNA encoding human FAAH (GenBank Accession No. NM—001441) was amplified by PCR using a human liver cDNA library (Invitrogen; Carlsbad, Calif.) as a template. The primer pair was 5′-[sequence]-3′ and 5′-[sequence]-3′. BglII and EcoRI endonuclease sites (underlined) were incorporated just upstream of the start codon and downstream of the stop codon of the coding sequence of FAAH, respectively. The PCR products were cloned into a pCR2.1 vector (Invitrogen) and the nucleotide sequence was verified by DNA sequencing. The cDNA fragments were then excised and directionally ligated to the BglII and EcoRI sites of the baculovirus transfer vector pAcUW21 (Lopez-Ferber et al., Baculovirus transfer vectors, in “Baculovirus Expression Protocols,” Richardson (Ed.), pp 25-63, Humana Press, Totowa, N.J., 1995). Recombinant baculoviruses harboring the human FAAH gene, Ac-hFAAH, were generated by co-transfection of Spodoptera frugiperda-derived Sf21 cells with the recombinant transfer vector plasmid and Bsu36I-cleaved BacPAK6 viral DNA (Clontech Laboratories; Mountain View, Calif.) as described in O'Reilly et al., Baculovirus Expression Vectors: A Laboratory Manual, Oxford University Press, New York, 1992. Trichoplusia ni-derived High Five cells (1×10^6 cells/ml) were inoculated with a high titer of Ac-hFAAH. At 72 hours post-infection, the infected cells were harvested by centrifugation at 2,000×g for 20 min at 4° C. and suspended in 50 mM Tris-HCl (pH 8.0) containing 150 mM NaCl, 1 mM EDTA, 1 μM pepstatin, 100 μM leupeptin, and 0.1 mg/ml aprotinin. The cell suspension was then homogenized using a Polytron homogenizer and centrifuged at 10,000×g for 20 min at 4° C. […]
# Comparison of the lowest detection limits of protein concentration of FAAH toward colorimetric and fluorescent substrates. […] The lowest detection limits of microsomal fatty acid amide hydrolase (FAAH) by substrates were determined by the fact that the signal at 10 min after kinetic measurements are equal to or over three times the noise or basal line at 0 min. Colorimetric substrate (16) assays were performed in clear 96-well microtititer plates using an absorbance wavelength at 382 nm. The fluorescent substrates containing 5-amino-2-methoxypyridine (e.g., 10, 13) were measured at an excitation wavelength (302 nm), emission wavelength (396 nm), and auto cutoff wavelength (325 nm). Similarly, the fluorescent substrates containing 5-amino-2-methoxy-6-methylpyridine (e.g., 11, 14, and 17) were measured at an excitation wavelength (304 nm), emission wavelength (392 nm), and an auto cutoff wavelength of 325 nm. […]
# [10] = Comparison of aqueous solubility of substrates (absorbance at 800 nm); type: physicochemical; settings: 0.1 M phosphate buffer (pH 8.0), 1% ethanol, 37° C.
# Method: Comparison of aqueous solubility of substrates. The aqueous solubility of the aminopyridine derivatives (e.g., 13, 14) and the 7-aminocoumarin derivative (e.g., 15) was determined in clear 96-well styrene flat-bottom microtiter plates with a Spectra Max M2 spectrophotometer. Different concentrations of the substrates (13, 14 and 15; final concentration: 0.39, 0.78, 1.56, 3.13, 6.25, 12.5, 25, 50, 100, or 200 μM) in 200 μl 0.1 M sodium phosphate buffer (1% ethanol; pH 8.0) were used and the absorbance was recorded at a wavelength of 800 nm at 37° C. The measurements were performed in three replicates for each concentration.
# [11] = biological target: T2, microsomal fatty acid amide hydrolase (FAAH) (Homo sapiens, UniProt O00519); assay: Lowest detection limits of microsomal FAAH toward colorimetric and fluorescent substrates; type: biochemical
# T2 construct: made in house; host or cells: Trichoplusia ni High Five cells infected with recombinant baculovirus Ac-hFAAH; microsomal fraction
# T2 sequence (O00519 1-579): T1 sequence (O00519 1-579)
# Method: as §2, §1
structure (smiles),measurement,setting,value
"CCCCCC=CCC=CCC=CCC=CCCCC(=O)Nc1ccc2c(C)cc(=O)oc2c1 [AAMCA, arachidonyl 7-amino-4-methylcoumarin amide]",Km,FAAH [1],0.48 µM
same,Vmax,FAAH [1],0.058 nmol/min/mg
same,Selectivity ratio,FAAH [2],2.2
"Nc1cccnc1 [Compound 1, 3-aminopyridine]","εmax, molar extinction coefficient",[3],2800 M⁻¹ cm⁻¹
same,"εmax, molar extinction coefficient",[4],2890 M⁻¹ cm⁻¹
same,"Em, maximal emission wavelength",[5],378 nm
same,"Ex, maximal excitation wavelength",[5],286 nm
same,quantum yield,"[6]; in 0.1 NH2SO4, Rusakowicz et al.",1.07
same,quantum yield,"[6]; in 1 N NaOH, Rusakowicz et al.",0.03
same,"ØF, fluorescence quantum yield",[6],0.32^d
same,"ØF, fluorescence quantum yield",[6]; listed as 3-aminopyridine,0.32
"CC(=O)Nc1ccc2c(C(F)(F)F)cc(=O)oc2c1 [Compound 12, N-(4-(trifluoromethyl)-2-oxo-2H-chromen-7-yl) acetamide]",melting point,,109.3 to 111.4 °C
same,"Specific activity, Human liver S9","amidases, human liver S9",0.18 ± 0.02 nmol/min/mg protein
same,"Specific activity, Human liver microsomes",[7],0.66 ± 0.06 nmol/min/mg protein
"CCCCCCCC(=O)Nc1ccc(OC)nc1C [Compound 14, N-(6-methoxy-2-methylpyridin-3-yl) octanamide]",melting point,,67.4 to 68.2 °C
same,"enhancement of activity, microsomes from FAAH-expressing cells compared with High Five cells",[8],31 times
same,"Specific activity, Microsomes from FAAH cells","[8]; pH 8.0, 37° C., NM = not measurable at the same protein concentration as other substrates",19.0 ± 0.5 nmol/min/mg protein
same,"Specific activity, Human liver S9","amidases, human liver S9",0.42 ± 0.01 nmol/min/mg protein
same,"Specific activity, Microsomes from High Five cells",[9],591 ± 18.4 pmol/min/mg protein
same,aqueous solubility compared with coumarin substrate (15),[10],much higher solubility
same,"base line, Average","[11]; 0 min, protein 0.11 (13), 0.67 (14), 100 (15), 0.5 (17) μg/well, 200 μM (13),(14), 25 μM (15), 50 μM (17)",194 RFU
same,"signal, Average","[11]; 10 min, protein 0.11 (13), 0.67 (14), 100 (15), 0.5 (17) μg/well, 200 μM (13),(14), 25 μM (15), 50 μM (17)",728* RFU
same,"Protein, lowest detection limit of microsomal FAAH (signal at 10 min ≥ three times base line)","[11]; pH 8.0, 37° C., 200 μM (13), (14), 50 μM (17)",0.67 μg/200 μ′
same,lowest detection limit of protein,[11]; signal at 10 min equal to three times base line,3.3 μg protein/ml
same,preference of human liver microsomes for substrate (14) over (13),[7]; Table 4,at least 15 times
same,"Specific activity, Human liver microsomes",[7],6.90 ± 0.25 nmol/min/mg protein
"CCCCCCCC/C=C\CCCCCCCC(N)=O [Oleamide, oleamide]",Km,FAAH [1],104 µM
same,Vmax,FAAH [1],5.7 nmol/min/mg
same,Selectivity ratio,FAAH [2],1.0
